The values below come from publication PMC12416277, “Phytochemical alkaloids orchestrate immunometabolism against viral infections” (National Science Review, 2025).

For data set [1], the system named is H1N1. As to the kind of experiment: Dose-response of infectivity, H1N1 in A549 cells (viral mRNA by qRT-PCR). The class given is cell-based. Particulars: Influenza A virus; A549 cells, H1N1; read-out: EC50.
The test system of another data set is HSV-1. As to the kind of experiment: microbe, parasite or virus in culture. The class given is cell-based, herpes simplex virus 1 (HSV-1). Particulars: Human alphaherpesvirus 1, L929.
Data set [2] concerns H1N1. As to the kind of experiment: H1N1 NP protein in A549 cells (confocal microscopy, immunoblotting). It is filed as cell-based, influenza virus A (H1N1). How it is done: Cells were lysed in lysis buffer and the protein concentrations were determined using the BCA Protein Assay Kit. Subsequently, the protein samples were separated by SDS-PAGE electrophoresis and transferred to nitrocellulose (NC) membranes, and blocked in 5% skim milk for 1 h at room temperature. Following an overnight incubation at 4°C with specific primary antibodies, the membranes were exposed to the appropriate HPR-conjugated antibodies and visualized using enhanced chemiluminescence.
Cells were fixed with 4% PFA for 20 min, permeabilized with 0.2% Triton X-100 for 20 min, and blocked in 5% BAS for 1 h. After incubating with primary antibodies at 4℃ overnight, fluorescent secondary antibodies (Alexa-488, Alexa-594, Alexa-647) were added at RT for 1 h. Confocal microscopy analyses were carried out using Olympus FV3000 confocal microscope, and Leica TCS SP8 confocal microscope. […] Cells were then analyzed for Filipin staining signals by microscopy in the DAPI channel. […] Cells were then analyzed for signals by microscopy in the AF647 channel.
Figure S2. […] P values were calculated using one-way ANOVA.

Data set [3] deals with H1N1. As to the kind of experiment: Time-of-drug-addition assay, H1N1 in A549 cells. The class given is cell-based, influenza virus A (H1N1). Particulars: pre-treatment, co-treatment and post-treatment.
Data set [4] relates to H1N1. As to the kind of experiment: Viral attachment, entry and post-entry assay, H1N1 in A549 cells. It is filed as cell-based, influenza virus A (H1N1).
Data set [5] has as its system H1N1. As to the kind of experiment: H1N1 mRNA in WT, TPCN1-/-, TPCN2-/- A549 cells or with nimodipine, qRT-PCR. The class given is cell-based, influenza virus A (H1N1).
For data set [6], the system named is VSV. The class given is cell-based, vesicular stomatitis virus (VSV). Particulars: Sting-/- BMDM cells vs WT.
The subject of data set [7] is VSV. It is filed as cell-based, vesicular stomatitis virus (VSV).
The target in data set [8] is T1, NPC1 (Homo sapiens, UniProt O15118).
T1 sequence (O15118 23-1278): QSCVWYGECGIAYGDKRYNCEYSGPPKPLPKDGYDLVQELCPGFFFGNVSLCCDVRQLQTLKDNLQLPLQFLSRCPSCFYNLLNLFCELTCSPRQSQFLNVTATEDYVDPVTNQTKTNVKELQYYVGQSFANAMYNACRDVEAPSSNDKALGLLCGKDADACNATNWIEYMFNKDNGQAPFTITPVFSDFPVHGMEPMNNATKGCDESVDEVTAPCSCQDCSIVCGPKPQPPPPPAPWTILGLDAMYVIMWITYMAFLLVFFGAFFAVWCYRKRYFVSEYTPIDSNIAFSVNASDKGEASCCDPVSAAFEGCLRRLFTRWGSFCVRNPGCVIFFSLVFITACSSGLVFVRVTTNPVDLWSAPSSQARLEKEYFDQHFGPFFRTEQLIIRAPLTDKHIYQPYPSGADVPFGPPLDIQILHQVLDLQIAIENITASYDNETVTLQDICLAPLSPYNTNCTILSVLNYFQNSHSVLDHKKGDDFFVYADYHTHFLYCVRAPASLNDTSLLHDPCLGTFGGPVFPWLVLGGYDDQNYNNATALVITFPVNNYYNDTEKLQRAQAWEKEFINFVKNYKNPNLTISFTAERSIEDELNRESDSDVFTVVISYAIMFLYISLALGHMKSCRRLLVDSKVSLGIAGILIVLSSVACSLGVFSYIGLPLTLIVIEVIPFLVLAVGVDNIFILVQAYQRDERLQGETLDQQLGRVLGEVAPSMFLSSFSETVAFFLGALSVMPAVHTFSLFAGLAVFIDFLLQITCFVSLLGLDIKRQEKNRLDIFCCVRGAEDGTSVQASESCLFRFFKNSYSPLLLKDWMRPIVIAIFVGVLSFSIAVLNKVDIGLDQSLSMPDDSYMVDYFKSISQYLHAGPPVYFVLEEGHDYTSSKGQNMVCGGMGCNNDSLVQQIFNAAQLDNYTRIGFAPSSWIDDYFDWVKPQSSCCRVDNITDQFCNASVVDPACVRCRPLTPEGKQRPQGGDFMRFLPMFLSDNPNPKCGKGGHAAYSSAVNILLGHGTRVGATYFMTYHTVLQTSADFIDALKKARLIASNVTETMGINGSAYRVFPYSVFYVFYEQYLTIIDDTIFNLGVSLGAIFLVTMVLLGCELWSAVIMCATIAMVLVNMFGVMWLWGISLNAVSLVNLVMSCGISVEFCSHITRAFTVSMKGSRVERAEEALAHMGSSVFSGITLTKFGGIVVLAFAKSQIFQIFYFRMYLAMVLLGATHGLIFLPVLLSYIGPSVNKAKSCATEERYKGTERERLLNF
As to the kind of experiment: Cellular thermal shift assay (CETSA). Particulars: 150 µM, HepG2 and A549 lysates.

The target in data set [9] is T1, NPC1. As to the kind of experiment: Drug affinity responsive target stability (DARTS). Particulars: 150 µM, pronase digestion.
The test system of the next data set is A549 cells. As to the kind of experiment: Transcriptome analysis (RNA-seq, GO, GSEA) of compound-treated A549 cells. Particulars: WT A549 cells, compared among Tet, Fan, Cep, Bbm.

The structures appear in SMILES notation.

In the case of `COc1ccc2cc1Oc1ccc(cc1)C[C@H]1c3cc(c(OC)cc3CCN1C)Oc1c(OC)c(OC)cc3c1[C@H](C2)N(C)CC3` [Tet, tetrandrine], the concentration giving a half-maximal response (EC50) (usually the concentration at which the effect is half-maximal) in the data set with H1N1 [1] came to 330 nM. Also, in the data set with HSV-1, a half-maximal effect (EC50) was put at 132 nM. Moreover, in the data set with H1N1 [2], the “H1N1 NP protein expression” value is “effectively reduced” and the cytopathic effects result is “without causing cytopathic effects”. Moreover, the H1N1 infection result with H1N1 [3] is “effectively suppressed”. For the same compound, the “H1N1 infection during entry or post-entry stages” value in the data set on H1N1 [4] was “inhibited”. Besides, the H1N1 attachment result in the data set on H1N1 [4] (4°C) is reported as “without affecting virus attachment”. The H1N1 replication entry with H1N1 [5] is “suppressed”. The antiviral efficacy result in the data set with H1N1 [5] (with nimodipine treatment) was “remained unchanged”. The “antiviral effect against VSV” value in the data set on VSV [6] is “markedly reduced”. The “antiviral effect and boosted ISGs” value in the data set with VSV [7] was “significantly attenuated”. Further, the “NPC1 stability (CETSA)” value at NPC1 [8] is on record as “enhanced NPC1 stability against degradation”. Besides, the “NPC1 stability (DARTS)” value on NPC1 [9] is given as “enhanced NPC1 stability against degradation”. The “expression of antiviral immune-related genes” value in the data set with A549 cells is given as “higher expression”.
